This passage reports GI50 and TGI results from PubChem BioAssay (NCI).

Structures are written as SMILES.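 Dose response: 5 concentrations. Exposure: 48 h. Format: 96-well plates. Endpoint: linear interpolation; highest concentration if not reached. Here, GI50 denotes the concentration required for 50% inhibition of growth. At the TGI there is no net growth.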 Some results are limits rather than exact numbers.

Common to all, as to experiment: inhibition of tumour cell growth, NCI panel, 48 h
Test [1] has as its system BT-549 breast.
Test [2] concerns ACHN renal.
Test [3] concerns PC-3 prostate.
Test [4] deals with NCI-H226 lung.
For test [5], the system named is KM12 colon.
In test [6] the test system is A549 NSCLC.
Test [7] relates to TK-10 renal.
Test [8] has as its system DU-145 prostate.
In test [9] the test system is MCF7 breast.
Test [10] has as its system T-47D breast.

Take `COc1ccc(-c2nc3sc4c(c3c(=O)[nH]2)CCCCCC4)cc1`: the GI50 in test [1] was 5.4 µM; in test [2], 2.3 µM; in test [3], greater than 33.2 µM; in [4] it was 8.17 µM; in test [5] it was 1.18 µM; in test [6], 2.94 µM. Besides, the GI50 in test [7] and in [8] was greater than 33.2 µM throughout. The TGI in [1], in test [2], in test [3], in test [4], in [5] and in test [6] was greater than 33.2 µM in each case. Also, the TGI in [7] and in test [8] was greater than 33.2 µM in each case.

As for `C1C[OH+]CC[OH+]CCNCC[OH+]CC[OH+]CCN1.N.[Cl-].[Pt+4]`, the GI50 was 4.33 µM in [2]; 23 µM in [4]; 19 µM in test [5]; 15.4 µM in [6]; 8.31 µM in test [7]. The TGI is 44 µM in test [2]; 77.4 µM in [4]; 48.7 µM in test [5]; greater than 100 µM in [6]; 71.3 µM in test [7].

In the case of `Cc1ccccc1[P+](Cc1ccccc1)(c1ccccc1)c1ccccc1`, the GI50 in [9] was 0.89 µM; in test [1], 2.4 µM; in test [2] it was 8.3 µM; in test [3] it was 1.45 µM; in test [4] it was 2.35 µM; in test [5] it was 1.12 µM. The GI50 in test [6] was 3.07 µM; in test [8], 3.69 µM. The TGI was greater than 100 µM in [9]; 11.5 µM in test [1]; greater than 100 µM in test [2]; greater than 100 µM in test [3]; greater than 100 µM in [4]; 15.1 µM in test [5]. Further, the TGI in test [6] and in test [8] was greater than 100 µM in each case.

Turning to `CCCNC1=C(C(=O)OCC)C(=O)CO1`, the TGI in test [2], in [4], in test [6] and in test [7] was greater than 100 µM throughout.

Regarding `CCCCCCCCCCCC(=O)OCC1OC(n2cc(F)c(=O)[nH]c2=O)C(NC(=O)OCc2ccccc2)C(OC(=O)CCCCCCCCCCC)C1O` (stereo unspecified), the TGI in [2], in test [4], in [5], in test [6] and in test [7] was greater than 100 µM each time.

Regarding `O=[N+]([O-])C1C2C=CC(C2)[C@H]1c1ccco1` (stereo partly specified), the TGI in test [2], in [4], in test [5], in test [6] and in test [7] was greater than 100 µM each time.

In the case of `O=C(CN1CCOCC1)Nc1nc(-c2ccc(Cl)cc2)cs1`, the TGI in [2] is 79.6 µM; in test [4], 60.9 µM; in test [5], 48.1 µM; in test [6], greater than 100 µM; in [7], greater than 100 µM.

Turning to `CCCCC(CC)CN=C(N)NC(N)=NCCCCCCN=C(N)NC(N)=NCC(CC)CCCC` (stereo unspecified), the GI50 is 2.85 µM in [2]; 2.38 µM in [4]; 4.03 µM in [7]; 2.21 µM in test [10]; 3.26 µM in [8]. In addition, the TGI in [2] was 7.74 µM; in test [4], 7.48 µM; in test [7], greater than 100 µM; in test [10], 4.9 µM; in [8], 11.4 µM.

With `Cc1ccc(C(=O)c2nnc(C(=O)c3ccc(C)cc3)nn2)cc1`, the TGI in test [2], in [4], in test [5], in test [6] and in [7] was greater than 100 µM in each case.

`NNC(=O)/C(=C/c1ccc(Cl)cc1Cl)NC(=O)c1ccccc1`: the TGI in test [2], in test [4], in test [5], in test [6] and in [7] was greater than 100 µM throughout.

For `CN(C)C(=O)OC(Cn1cncn1)c1ccc(Cl)cc1Cl` (stereo unspecified), the TGI in test [2], in test [4], in test [5], in test [6] and in test [7] was greater than 100 µM throughout.

Consider `C#CCOCn1cnc2c(Cl)ncnc21`, for which the TGI in [2], in test [4], in [5], in test [6] and in test [7] was greater than 100 µM in each case.

As for `COc1ccc(OC)c(NC(=O)C2=C(C)NC(C)=C(C(=O)Nc3cc(OC)ccc3OC)C2c2ccccc2)c1`, the TGI in [2], in test [5], in test [6] and in [7] was greater than 100 µM throughout.

For `CC1C=C(OC(=O)c2ccccc2)C(=O)C(n2cc(F)c(=O)[nH]c2=O)O1` (stereo unspecified), the TGI in test [2], in [4], in test [5], in test [6] and in test [7] was greater than 100 µM each time.

Take `C/C(=N\NS(=O)(=O)c1ccccc1)c1ccc(Cl)c(Cl)c1`: the TGI in test [2], in [4], in [5], in test [6] and in test [7] was greater than 100 µM in each case.

Turning to `Cc1ccc(NC(=O)C(=O)C(C#N)c2ccccc2C)cc1C` (stereo unspecified), the TGI in test [2], in [4], in test [5], in test [6] and in test [7] was greater than 100 µM throughout.

As to `CCCCCCCCCCCCCCCCN1CC2CCCCC2C1` (stereo unspecified), the GI50 was 9.57 µM in test [9]; 11.3 µM in [1]; 15.7 µM in test [2]; 2.11 µM in test [3]; 4.2 µM in [4]; 5.15 µM in [5]. Also, the GI50 is 4.09 µM in [6], 11.2 µM in [7] and 3.85 µM in [8]. Further, the TGI is greater than 100 µM in [9]; 24.6 µM in test [1]; 31.1 µM in [2]; 5.56 µM in test [3]; 16.8 µM in [4]; 19.7 µM in [5]. Besides, the TGI came to 17 µM in test [6], 26.1 µM in test [7] and 14.1 µM in test [8].

On to `C=CCC[CH2][Sn]([c]1ccccc1)([c]1ccccc1)[c]1ccccc1`, for which the GI50 in test [2] is 1.66 µM; in [4], 1.74 µM; in [5] it was 1.31 µM; in test [6] it was 1.71 µM; in test [7], 1.6 µM. Further, the TGI worked out at 3.07 µM in test [2]; 3.33 µM in [4]; 2.58 µM in [5]; 3.54 µM in test [6]; 3.09 µM in [7].

For `COc1ccc2nc(-c3cccs3)cc(C(O)CN3CCSCC3)c2c1` (stereo unspecified), the TGI in [2] is 45.9 µM; in test [5] it was 74.2 µM; in [6] it was greater than 100 µM; in test [7], 91.8 µM.

Take `CC1=C(Oc2ccccc2)C(CCC(=O)O)c2c(O)cc(Cl)c(O)c21` (stereo unspecified): the TGI in test [5], in [6] and in test [7] was greater than 100 µM each time.

As for `COc1cc(C(=O)C/C(CCCC(=O)Nc2ccccc2[N+](=O)[O-])=N/NC(=O)c2cc3ccccc3cc2O)ccc1O`, the TGI was 98.3 µM in test [2]; greater than 100 µM in test [4]; 82.5 µM in [5]; greater than 100 µM in [6]; greater than 100 µM in [7].

`CCN(CC)c1ccc(C(=O)c2ccccc2C(=O)O)c(O)c1`: the TGI in test [2], in [5], in test [6] and in [7] was greater than 100 µM in each case.

For `COc1ccc(-c2n/c(=C\c3c(O)[nH]c4ccc(OC)cc34)cc3c2=Nc2ccccc2-3)cc1`, the GI50 is 26.7 µM in [2]; 22.1 µM in [3]; 3.8 µM in test [5]; 3.43 µM in test [6]; 2.09 µM in test [7]; 11.8 µM in test [10]. Moreover, the TGI in [2] was greater than 100 µM; in test [3], greater than 100 µM; in test [5], greater than 100 µM; in [6], 66.2 µM; in test [7], 3.87 µM; in [10] it was 40.5 µM.

For the molecule `COc1ccc(OC)c(/C=C2\SC(=S)NC2=O)c1`, the GI50 in test [9] is 23.5 µM; in [2], 26.7 µM; in test [3], 35 µM; in test [5] it was 58.7 µM; in [6], 26 µM; in test [7], 28.8 µM. The figures for the GI50 in test [10] and in [8] were 18.6 µM and 20 µM, respectively. The TGI is greater than 100 µM in test [9]; 95.1 µM in test [2]; greater than 100 µM in test [3]; greater than 100 µM in test [5]; 89.9 µM in [6]; greater than 100 µM in test [7]. The TGI in test [10] was determined as 56.7 µM; in test [8], 74.3 µM.

Turning to `Cc1cc(N(CCC#N)CCC#N)ccc1N=Nc1cccc(C(=O)O)c1`, the TGI in test [2], in test [4], in test [5], in [6] and in test [7] was greater than 100 µM each time.

With `O=C(N/C(=C\c1ccc2c(c1)OCO2)c1nc2ccccc2[nH]1)c1ccccc1`, the TGI is greater than 100 µM in test [2]; 77.1 µM in test [4]; greater than 100 µM in [5]; greater than 100 µM in [6]; 92.3 µM in test [7].

For `Cc1c(C(=O)C/C(=N\O)C(=O)Nc2cc(Cl)c(Cl)cc2Cl)[n+](=O)c2ccccc2n1[O-]`, the TGI in test [2] was 67.5 µM; in test [4], 37.5 µM; in test [5], 26.2 µM; in test [6], greater than 100 µM; in test [7], 72.2 µM.

`Cc1ccc(N=Nc2c(O)c(C(=O)O)cc3ccccc23)cc1C`: the TGI in test [9], in [1], in test [2], in test [3], in test [4] and in [5] was greater than 100 µM throughout. The TGI in [6] and in [7] was greater than 100 µM throughout.

As for `CCCCCCCCN=C(N)c1ccc(N2CCN(c3ccc(C(N)=NCCCCCCCC)cc3)CC2)cc1`, the GI50 in [1] was 1.41 µM; in test [2] it was 2.37 µM; in test [3] it was 22.7 µM; in test [4], 1.6 µM; in [5], 1.9 µM; in [6] it was 1.67 µM. Further, the GI50 in [7] was 1.72 µM; in test [10], 1.63 µM; in [8], 2.42 µM. The TGI in test [1] is 3.82 µM; in test [2], 12.7 µM; in [3], greater than 50 µM; in [4], 5.44 µM; in [5], 8.81 µM; in test [6], 9.08 µM. Moreover, the TGI was 8.92 µM in [7], 13.5 µM in [10] and 18 µM in [8].

Consider `CC1=C(C)C(=O)c2c(cc3ccccn23)C1=O`, for which the TGI in test [2] was greater than 100 µM; in test [4] it was 58.5 µM; in [5] it was 31.3 µM; in test [6] it was 43.1 µM; in [7], 55.9 µM.

In the case of `CC1=Nc2ccccc2S/C1=C(/C)NNC(=O)C(N)=O`, the TGI in test [2], in [5], in test [6] and in test [7] was greater than 100 µM throughout.

Take `COC(=O)C(=O)C1(CCC(C)=O)c2ccccc2-c2c(C)ccc(C)c21` (stereo unspecified): the TGI in test [2], in test [4], in [5], in [6] and in test [7] was greater than 100 µM each time.

For `Cc1ccc(N=Cc2ccc3c(c2)OCO3)cc1C`, the TGI in test [2], in [4], in [5], in [6] and in test [7] was greater than 100 µM each time.

Consider `COc1cc(OC(C)=O)cc2c(OC(C)=O)ccc(OC(C)=O)c12`, for which the TGI in test [2], in test [5], in test [6] and in [7] was greater than 100 µM throughout.
